Key:
Format in all cases: in vitro ADME
rat hepatocytes = test: Metabolite characterization in rat hepatocytes; conditions: rat hepatocyte 1 h incubates of ETN101; ND:<1.2E+05 peak area
Protocol: (§1) We mixed 60 μL aliquots of 40 μM ETN101 in incubation medium and an equal volume of human, mouse, rat, dog, or monkey hepatocyte suspension in 96-well plates and incubated for 0 or 1 h in a CO2 incubator at 37 °C. The reactions were quenched by adding 120 µL of ice-cold acetonitrile to each well, and the cell suspension was sonicated for 5 min at 4 °C. Subsequently, centrifugation was carried out at 15,000× g for 10 min at 4 °C. Next, the supernatants were evaporated to dryness using a vacuum concentrator, and residues were re-dissolved in 70 μL of 30% acetonitrile. Each sample (5 μL aliquots) was analyzed using LC–HRMS system.
(§2) For metabolite characterization, a Vanquish HPLC system (Thermo Fisher Scientific, San José, CA, USA) coupled with a Q-Exactive Orbitrap mass spectrometer (Thermo Fisher Scientific Inc., Waltham, MA, USA) was used at Core Research Support Center for Natural Products and Medical Materials at Yeungnam University. […] The eluent from the column was directly injected into the mass spectrometer using a heated electrospray ionization (HESI) source in positive ionization mode. […] The spray voltage was 3.0 kV and the capillary temperature was 320 °C. Full scan MS^1 with a data-dependent MS^2 acquisition mode was applied to obtain MS^1 scan data ranging from m/z 80 to 900, at a resolution of 70,000, whereas data-dependent MS^2 spectra were acquired for the five most abundant peaks per cycle at a resolution of 35,000. The parallel reaction monitoring (PRM) mode was used to obtain the MS^2 spectra of putative metabolites detected at low peak intensities in the data-dependent MS^2 acquisition mode. Data were collected and interpreted using Thermo Scientific Xcalibur™ Software (Thermo Fisher Scientific).

mouse hepatocytes = test: Metabolite characterization in mouse hepatocytes; conditions: mouse hepatocyte 1 h incubates of ETN101; ND:<1.2E+05 peak area
Protocol: as §1, §2

CYP2C9 = biological target: T1, CYP2C9 (Homo sapiens, UniProt P11712); test: Incubation with human cDNA-expressed CYP2C9; conditions: CYP2C9, 30 min at 37 °C with NADPH; ETN101 10 μM or M1 1 μM; diclofenac positive control
T1 construct: purchased Corning Life Sciences (Woburn, MA, USA)
T1 sequence (P11712 whole entry): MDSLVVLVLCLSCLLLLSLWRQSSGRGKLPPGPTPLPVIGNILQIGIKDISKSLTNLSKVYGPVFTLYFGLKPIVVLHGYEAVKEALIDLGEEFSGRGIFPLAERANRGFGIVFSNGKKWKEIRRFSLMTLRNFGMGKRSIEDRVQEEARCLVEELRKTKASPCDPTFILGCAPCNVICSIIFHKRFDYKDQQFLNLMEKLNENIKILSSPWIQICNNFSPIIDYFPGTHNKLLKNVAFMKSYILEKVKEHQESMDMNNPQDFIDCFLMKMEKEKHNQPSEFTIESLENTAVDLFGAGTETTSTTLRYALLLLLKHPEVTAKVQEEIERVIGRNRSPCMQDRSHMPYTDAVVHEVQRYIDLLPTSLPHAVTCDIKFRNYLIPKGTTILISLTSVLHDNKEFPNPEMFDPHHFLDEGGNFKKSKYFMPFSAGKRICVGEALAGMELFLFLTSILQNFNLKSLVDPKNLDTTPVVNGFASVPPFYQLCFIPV
Protocol: The mobile phases comprised 0.1% (v/v) formic acid in water (mobile phase A) and 0.1% formic acid (v/v) in acetonitrile (mobile phase B). […] The column and auto-sampler were maintained at 40 °C and 4 °C, respectively. ETN101, M1, and M2 were detected via MRM using ESI in the positive mode. […] Mass Hunter software (Agilent Technologies) was used to control the LC-MS/MS instrument and for data processing.

monkey hepatocytes = test: Metabolite characterization in monkey hepatocytes; conditions: monkey hepatocyte 1 h incubates of ETN101; ND:<1.2E+05 peak area
Protocol: as §1, §2

CES2 = biological target: T2, CES2 (Homo sapiens, UniProt O00748); test: Incubation with human recombinant CES2; conditions: CES2, 60 min at 37 °C; ETN101 10 μM or M1 1 μM
T2 construct: purchased Corning Life Sciences (Woburn, MA, USA)
T2 sequence (O00748 27-559): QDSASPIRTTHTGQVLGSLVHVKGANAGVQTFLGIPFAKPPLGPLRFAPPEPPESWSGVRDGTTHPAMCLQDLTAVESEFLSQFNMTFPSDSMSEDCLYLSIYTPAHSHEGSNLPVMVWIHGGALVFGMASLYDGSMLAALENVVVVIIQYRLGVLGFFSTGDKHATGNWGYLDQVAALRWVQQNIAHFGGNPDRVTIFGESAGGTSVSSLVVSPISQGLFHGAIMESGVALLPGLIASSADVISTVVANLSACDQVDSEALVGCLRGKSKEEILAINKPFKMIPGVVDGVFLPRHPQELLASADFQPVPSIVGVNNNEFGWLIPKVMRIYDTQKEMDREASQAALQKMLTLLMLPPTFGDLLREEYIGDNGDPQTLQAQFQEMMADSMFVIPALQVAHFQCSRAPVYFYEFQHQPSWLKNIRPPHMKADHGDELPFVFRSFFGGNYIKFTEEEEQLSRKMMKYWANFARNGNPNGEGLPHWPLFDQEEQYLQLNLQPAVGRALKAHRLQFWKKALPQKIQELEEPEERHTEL
Protocol: To screen for CES enzymes responsible for the hydrolysis of ETN101 or M1, 50 μL of reaction mixtures containing human cDNA-expressed CES enzymes (CES1b, CES1c, and CES2) at the concentration of 1 mg/mL, 10 μM ETN101, or 1 μM M1 in 0.1 M potassium phosphate buffer were incubated at 37 °C for 0 min or 60 min in triplicate. The reactions were quenched by adding 50 μL of ice-cold acetonitrile containing the internal standard (camptothecin, 10 μg/mL). Following centrifugation at 13,000 rpm for 5 min, a 2 μL aliquot of the supernatant was injected into the LC-MS/MS system. The reliability of the analysis was confirmed by incorporating three different levels of quality control samples at the beginning and end of each analytical batch.
For enzyme characterization, an Agilent 6460 triple quadrupole mass spectrometer coupled with a 1260 HPLC system (Agilent Technologies, Santa Clara, CA, USA) and a Kinetex Halo® C18 column (2.7 μm, 2.1 × 50 mm, Advanced Material Technology, Wilmington, DE, USA) were used for chromatographic separation. The mobile phases comprised 0.1% (v/v) formic acid in water (mobile phase A) and 0.1% formic acid (v/v) in acetonitrile (mobile phase B). […] ETN101, M1, and M2 were detected via MRM using ESI in the positive mode. […]

dog hepatocytes = test: Metabolite characterization in dog hepatocytes; conditions: dog hepatocyte 1 h incubates of ETN101; ND:<1.2E+05 peak area
Protocol: as §1, §2

Compound	Relative peak area (%) (rat hepatocytes)	Relative peak area (%) (mouse hepatocytes)	Percentage remaining (CYP2C9) [%]	Relative peak area (%) (monkey hepatocytes)	Percentage remaining (CES2) [%]	Relative peak area (%) (dog hepatocytes)
NCC(N)C(=O)Nc1ccc(-c2nc3ccccc3s2)cc1 (stereo not drawn) [ETN101, 2,3-diamino-N-(4-(benzo[d]thiazol-2-yl)phenyl)propanamide]	18.7	26.8	110.8	69.0	113.4	39.5
Nc1ccc(-c2nc3ccccc3s2)cc1 [M1, 2-(4-aminophenyl)benzothiazole]	75.2	71.8	80.1	21.5	91.7	55.9

Reference: publication PMC11356571, “The Comparative Metabolism of a Novel Hepatocellular Carcinoma Therapeutic Agent, 2,3-Diamino-N-(4-(benzo[d]thiazol-2-yl)phenyl)propanamide, in Human and Animal Hepatocytes” (Metabolites, 2024)
